Results as given in publication PMC5182151 (International journal of pharmaceutics, 2016).

How the values were obtained:
[1] = Stability of VD3-TyroSphere formulations during storage; type: physicochemical; conditions: in Transcutol (1mg/ml), 2 months storing at room temperature
physchem = type: physicochemical
[2] = VD3 dispersion in water, UV light for 9.5h; ref Luo et al., 2012; cited from earlier work

C=C1CC[C@H](O)C/C1=C/C=C1\CCC[C@]2(C)[C@@H]([C@H](C)CCCC(C)C)CC[C@@H]12 [VD3, cholecalciferol]
VD3 detected [1]: 2%
half-life (physchem): 76 h
drug lost in first 24h exposure to UV light (physchem; VD3 in methanol solution, 254 nm UV): ~20%
photodegradation rate constant (zero-order) (physchem; VD3 in methanol, 254 nm UV): -1.194 µg/mL/h
VD3 left after 134 h UV exposure (physchem; methanol formulation, 254 nm UV): 21%
VD3 remained after UV exposure [2]: about 30%
